Data: US11382918B2, “Methods for treating Huntington's Disease” (PTC Therapeutics, Inc., priority 2017, dated 2022)
Structures can show the parent of a compound that is named as a salt.

Test system: Endogenous Huntingtin Protein (HTT)
Experiment: Endogenous Huntingtin Protein Assay (ELISA-based MSD electrochemiluminescence)
Format: cell-based
Details: Table 1
Method in brief: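 MSD electrochemiluminescence sandwich ELISA for endogenous HTT: sample lysates captured overnight at 4 °C on MW1 (expanded polyglutamine) or MAB2166 antibody. Detection used rabbit monoclonal #5656S, then goat anti-rabbit SULFO-TAG antibody, each 1 h at room temperature.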

IC50 [nM] | SMILES
3000 to 33000 | Cc1cc(-c2cc(=O)n3cc(C4CC(C)(C)NC(C)(C)C4)cc(C)c3n2)cc2cn(C)nc12 [compound 866, 2-(2,7-dimethyl-2H-indazol-5-yl)-9-methyl-7-(2,2,6,6-tetramethylpiperidin-4-yl)-4H-pyrido[1,2-a]pyrimidin-4-one]
1000 to 3000 | CCN1CCC(c2cn3c(=O)cc(-c4ccc5nn(C)cc5c4)nc3cn2)CC1 [compound 568, 7-(1-ethylpiperidin-4-yl)-2-(2-methyl-2H-indazol-5-yl)-4H-pyrazino[1,2-a]pyrimidin-4-one]
3000 to 33000 | CCN1CCN(c2ccc3nc(-c4cc(C)c5c(cnn5C)c4)cc(=O)n3c2)CC1 [compound 845, 2-(1,7-dimethyl-1H-indazol-5-yl)-7-(4-ethylpiperazin-1-yl)-4H-pyrido[1,2-a]pyrimidin-4-one]
1000 to 3000 | Cc1cn2cc(-c3cc(=O)n4cc(N5CCN[C@@H](C)C5)ccc4n3)nc2cn1 [compound 75, 2-(6-methylimidazo[1,2-a]pyrazin-2-yl)-7-[(3S)-3-methylpiperazin-1-yl]-4H-pyrido[1,2-a]pyrimidin-4-one]
1000 to 3000 | CCN1CCN(c2ccc3nc(-c4cc(F)c5nc(C)oc5c4)cc(=O)n3c2)CC1 [compound 309, 7-(4-ethylpiperazin-1-yl)-2-(4-fluoro-2-methyl-1,3-benzoxazol-6-yl)-4H-pyrido[1,2-a]pyrimidin-4-one]
3000 to 33000 | Cc1cn2nc(-c3cc(=O)n4cc(N5CCN[C@@H](C)C5)ccc4n3)cc2c(C)n1 [compound 121, 2-(4,6-dimethylpyrazolo[1,5-a]pyrazin-2-yl)-7-[(3S)-3-methylpiperazin-1-yl]-4H-pyrido[1,2-a]pyrimidin-4-one]
1000 to 3000 | Cc1cn2nc(-c3cc(=O)n4cc(N5CC(CN(C)C)C5)ccc4n3)cc2c(C)n1 [compound 780, 7-{3-[(dimethylamino)methyl]azetidin-1-yl}-2-(4,6-dimethylpyrazolo[1,5-a]pyrazin-2-yl)-4H-pyrido[1,2-a]pyrimidin-4-one]
3000 to 33000 | CCc1nc(C)cn2cc(-c3cc(=O)n4cc(N5CCCNCC5)ccc4n3)cc12 [compound 749, 7-(1,4-diazepan-1-yl)-2-(1-ethyl-3-methylpyrrolo[1,2-a]pyrazin-7-yl)-4H-pyrido[1,2-a]pyrimidin-4-one]
3000 to 33000 | Cc1cn2cc(-c3cc(=O)n4cc(N5C[C@@H](C)N[C@@H](C)C5)ccc4n3)cc(C(F)(F)F)c2n1 [compound 736, 7-[(3R,5S)-3,5-dimethylpiperazin-1-yl]-2-[2-methyl-8-(trifluoromethyl)imidazo[1,2-a]pyridin-6-yl]-4H-pyrido[1,2-a]pyrimidin-4-one]
< 100 | Cc1cn2cc(-c3cc(=O)n4cc(C5CCNCC5)nc(C)c4n3)cc(F)c2n1 [compound 875, 2-(8-fluoro-2-methylimidazo[1,2-a]pyridin-6-yl)-9-methyl-7-(piperidin-4-yl)-4H-pyrazino[1,2-a]pyrimidin-4-one hydrochloride (1:2)]
3000 to 33000 | CCc1cc(-c2cc(=O)n3cc(N4CCN[C@@H](C)C4)ccc3n2)cn2cc(C)nc12 [compound 639, 2-(8-ethyl-2-methylimidazo[1,2-a]pyridin-6-yl)-7-[(3S)-3-methylpiperazin-1-yl]-4H-pyrido[1,2-a]pyrimidin-4-one]
3000 to 33000 | Cc1cc(-c2cc(=O)n3cc(N4CCN[C@@H](C)C4)ccc3n2)cc2cn(C)nc12 [compound 750, 2-(2,7-dimethyl-2H-indazol-5-yl)-7-[(3S)-3-methylpiperazin-1-yl]-4H-pyrido[1,2-a]pyrimidin-4-one]
3000 to 33000 | Cc1nc2cc(-c3cc(=O)n4cc(N5CCNCC5)ccc4n3)ccc2s1 [compound 136, 2-(2-methyl-1,3-benzothiazol-5-yl)-7-(piperazin-1-yl)-4H-pyrido[1,2-a]pyrimidin-4-one]
3000 to 33000 | Cc1cc(-c2cc(=O)n3cc(N4CCN[C@@H](C)C4)ccc3n2)cc2cnn(C)c12 [compound 777, 2-(1,7-dimethyl-1H-indazol-5-yl)-7-[(3S)-3-methylpiperazin-1-yl]-4H-pyrido[1,2-a]pyrimidin-4-one]
1000 to 3000 | CCN1CCC(c2ccc3nc(-c4ccc5nn(C)cc5c4)cc(=O)n3c2)CC1 [compound 612, 7-(1-ethylpiperidin-4-yl)-2-(2-methyl-2H-indazol-5-yl)-4H-pyrido[1,2-a]pyrimidin-4-one]
3000 to 33000 | Cc1cn2cc(-c3ccc4nc(C5CCN(C)CC5)cc(=O)n4c3)ccc2n1 [compound 460, 7-(2-methylimidazo[1,2-a]pyridin-6-yl)-2-(1-methylpiperidin-4-yl)-4H-pyrido[1,2-a]pyrimidin-4-one]
1000 to 3000 | CCc1nc(C)cn2nc(-c3cc(=O)n4cc(N5CCN(CCO)[C@H](C)C5)ccc4n3)cc12 [compound 632, 2-(4-ethyl-6-methylpyrazolo[1,5-a]pyrazin-2-yl)-7-[(3R)-4-(2-hydroxyethyl)-3-methylpiperazin-1-yl]-4H-pyrido[1,2-a]pyrimidin-4-one]
3000 to 33000 | Cc1cc(C2=CC(C)(C)NC(C)(C)C2)cn2c(=O)cc(-c3ccc4nn(C)cc4c3)nc12 [compound 865, 9-methyl-2-(2-methyl-2H-indazol-5-yl)-7-(2,2,6,6-tetramethyl-1,2,3,6-tetrahydropyridin-4-yl)-4H-pyrido[1,2-a]pyrimidin-4-one]
500 to 1000 | CCc1nc(C)cn2nc(-c3cc(=O)n4cc(C5CCN(CCF)CC5)ccc4n3)cc12 [compound 668, 2-(4-ethyl-6-methylpyrazolo[1,5-a]pyrazin-2-yl)-7-[1-(2-fluoroethyl)piperidin-4-yl]-4H-pyrido[1,2-a]pyrimidin-4-one]
500 to 1000 | CCCc1nc(C)cn2nc(-c3cc(=O)n4cc(C5CCNCC5)ccc4n3)cc12 [compound 766, 2-(6-methyl-4-propylpyrazolo[1,5-a]pyrazin-2-yl)-7-(piperidin-4-yl)-4H-pyrido[1,2-a]pyrimidin-4-one]
3000 to 33000 | Cc1cc(C2CC(C)(C)NC(C)(C)C2)cn2c(=O)cc(-c3ccc4nn(C)cc4c3)nc12 [compound 867, 9-methyl-2-(2-methyl-2H-indazol-5-yl)-7-(2,2,6,6-tetramethylpiperidin-4-yl)-4H-pyrido[1,2-a]pyrimidin-4-one]
3000 to 33000 | COc1cc(O)ccc1-c1cc(=O)n2cc(C3=CCN(C(=O)OC(C)(C)C)CC3)ccc2n1 [compound 847, tert-butyl 4-[2-(4-hydroxy-2-methoxyphenyl)-4-oxo-4H-pyrido[1,2-a]pyrimidin-7-yl]-3,6-dihydropyridine-1(2H)-carboxylate]
1000 to 3000 | Cc1cc(N2CCN[C@H](C)C2)cn2c(=O)cc(-c3ccc4nn(C)cc4c3)nc12 [compound 755, 9-methyl-2-(2-methyl-2H-indazol-5-yl)-7-[(3R)-3-methylpiperazin-1-yl]-4H-pyrido[1,2-a]pyrimidin-4-one]
500 to 1000 | Cc1nc2c(F)cc(-c3cc(=O)n4cc(N5CCN(C)CC5)ccc4n3)cc2o1 [compound 308, 2-(4-fluoro-2-methyl-1,3-benzoxazol-6-yl)-7-(4-methylpiperazin-1-yl)-4H-pyrido[1,2-a]pyrimidin-4-one]
1000 to 3000 | Cc1cn2cc(-c3cc(=O)n4cc(N5CCN(CCOCCO)[C@@H](C)C5)ccc4n3)cc(F)c2n1 [compound 540, 2-(8-fluoro-2-methylimidazo[1,2-a]pyridin-6-yl)-7-{(3S)-4-[2-(2-hydroxyethoxy)ethyl]-3-methylpiperazin-1-yl}-4H-pyrido[1,2-a]pyrimidin-4-one]
500 to 1000 | CC(C)N1CCC(c2ccc3nc(-c4ccc5nn(C)cc5c4)cc(=O)n3c2)CC1 [compound 608, 2-(2-methyl-2H-indazol-5-yl)-7-[1-(propan-2-yl)piperidin-4-yl]-4H-pyrido[1,2-a]pyrimidin-4-one]
3000 to 33000 | C[C@@H]1CN(c2ccc3nc(-c4ccc5c(cnn5C)c4)cc(=O)n3c2)C[C@H](C)N1 [compound 552, 7-[(3R,5S)-3,5-dimethylpiperazin-1-yl]-2-(1-methyl-1H-indazol-5-yl)-4H-pyrido[1,2-a]pyrimidin-4-one]
3000 to 33000 | Cc1cn2nc(-c3cc(=O)n4cc(N5CCNCC5)cc(C)c4n3)cc2c(C)n1 [compound 720, 2-(4,6-dimethylpyrazolo[1,5-a]pyrazin-2-yl)-9-methyl-7-(piperazin-1-yl)-4H-pyrido[1,2-a]pyrimidin-4-one]
100 to 500 | Cc1cn2cc(-c3cc(=O)n4cc(N5CCN[C@H](C)C5)ccc4n3)cc2c(C)n1 [compound 713, 2-(1,3-dimethylpyrrolo[1,2-a]pyrazin-7-yl)-7-[(3R)-3-methylpiperazin-1-yl]-4H-pyrido[1,2-a]pyrimidin-4-one]

SMILES | IC50 [nM]
Cc1cc(-c2cc(=O)n3cc(C4=CCNCC4)ccc3n2)nc2cnn(C)c12 [compound 860, 2-(1,7-dimethyl-1H-pyrazolo[4,3-b]pyridin-5-yl)-7-(1,2,3,6-tetrahydropyridin-4-yl)-4H-pyrido[1,2-a]pyrimidin-4-one hydrochloride (1:2)] | 3000 to 33000
CCc1nc(C)cn2nc(-c3cc(=O)n4cc(C5=CCNCC5)ccc4n3)cc12 [compound 763, 2-(4-ethyl-6-methylpyrazolo[1,5-a]pyrazin-2-yl)-7-(1,2,3,6-tetrahydropyridin-4-yl)-4H-pyrido[1,2-a]pyrimidin-4-one] | 100 to 500
CCN1CC=C(c2ccc3nc(-c4ccc5nn(C)cc5c4)cc(=O)n3c2)CC1 [compound 477, 7-(1-ethyl-1,2,3,6-tetrahydropyridin-4-yl)-2-(2-methyl-2H-indazol-5-yl)-4H-pyrido[1,2-a]pyrimidin-4-one] | 1000 to 3000
CN1CC=C(c2cn3c(=O)cc(-c4ccc5c(cnn5C)c4)nc3cn2)CC1 [compound 506, 2-(1-methyl-1H-indazol-5-yl)-7-(1-methyl-1,2,3,6-tetrahydropyridin-4-yl)-4H-pyrazino[1,2-a]pyrimidin-4-one] | 3000 to 33000
Cc1cn2nc(-c3cc(=O)n4cc(N(C)C5CC(C)(C)NC(C)(C)C5)cc(C)c4n3)cc2c(C)n1 [compound 852, 2-(4,6-dimethylpyrazolo[1,5-a]pyrazin-2-yl)-9-methyl-7-[methyl(2,2,6,6-tetramethylpiperidin-4-yl)amino]-4H-pyrido[1,2-a]pyrimidin-4-one] | 3000 to 33000
